Key:
[1] = molecular target: T1, human BACE2 (Homo sapiens, UniProt Q9Y5Z0); assay: Fluorescent kinetic assay for human recombinant BACE 2 (WABC-6 peptide substrate); assay type: biochemical; details: for IC50: 1.5 nM enzyme, 25 μM substrate, pH 4.5, room temperature
T1 sequence (Q9Y5Z0 63-518): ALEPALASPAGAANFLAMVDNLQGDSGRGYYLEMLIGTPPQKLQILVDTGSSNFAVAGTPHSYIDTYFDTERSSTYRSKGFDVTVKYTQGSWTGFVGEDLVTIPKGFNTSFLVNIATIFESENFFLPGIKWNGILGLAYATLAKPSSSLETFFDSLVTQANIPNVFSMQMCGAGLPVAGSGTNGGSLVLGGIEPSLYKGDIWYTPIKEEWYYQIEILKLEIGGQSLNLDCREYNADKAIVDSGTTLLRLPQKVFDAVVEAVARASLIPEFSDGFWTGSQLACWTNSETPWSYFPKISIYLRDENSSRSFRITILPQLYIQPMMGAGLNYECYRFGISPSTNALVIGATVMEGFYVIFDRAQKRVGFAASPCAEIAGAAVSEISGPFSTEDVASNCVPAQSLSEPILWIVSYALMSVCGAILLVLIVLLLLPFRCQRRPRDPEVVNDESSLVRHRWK
Method: (§1) Evaluation of the Enzyme Activity of Test Compounds and the Inhibition of hBACE1, MuBACE1 and hBACE2 by Test Compounds
Assay Conditions: 10 nM human BACE1 (or 10 nM Murine BACE1, 1.5 nM human BACE2) 25 μM substrate (WABC-6, MW 1549.6, from AnaSpec); final buffer conditions: 50 mM Na-Acetate, pH 4.5, 0.05% CHAPS, 25% PBS; temperature: room temperature; reagent information: Na-Acetate: Aldrich, Cat.#24,124-5 CHAPS: Research Organics, Cat. #1304C 1× PBS: Mediatech (Cellgro), Cat#21-031-CV; peptide substrate AbzSEVNLDAEFRDpa: AnaSpec, Peptide Name: WABC-6; determination of stock substrate (AbzSEVNLDAEFRDpa) concentration: a 25 mM stock solution in dimethyl sulfoxide (DMSO) is prepared using the peptide weight and MW and diluted to 25 μM. The concentration is determined by absorbance at 354 nm using an extinction coefficient ε of 18172 M^−1 cm^−1, The substrate stock is stored in small aliquots at −80° C. [Substrate Stock]=ABS^354 nm*10^6/18172 (in mM)
Calculation of % Inhibition: % Inhibition=100*(1−vi/v0) • (vi=substrate cleavage rate in the presence of inhibitor, • v0=substrate cleavage rate in the absence of inhibitor) IC50 Determination: % Inhibition=[(B*IC50^n)+(100*I0^n)]/(IC50^n+I0^n), Fluorescent Kinetic Assay for Human Recombinant BACE 2
This assay is used to provide kinetic and selectivity parameters for the analyses of the tested compounds.
Materials and methods: final assay conditions: 10 nM human BACE1 (or 10 nM Murine BACE1, 1.5 nM human BACE2) 25 μM Substrate (WABC-6, MW 1549.6, from AnaSpec). Final buffer conditions: 50 mM Na-Acetate, pH 4.5, 0.05% CHAPS, 25% PBS. Temperature: room temperature. Reagent Information: Na-Acetate: Aldrich, Cat.#24,124-5 CHAPS: Research Organics, Cat. #1304C 1× PBS: Mediatech (Cellgro), Cat#21-031-CV Peptide Substrate AbzSEVNLDAEFRDpa: AnaSpec, Peptide Name: WABC-6
Determination of stock substrate (AbzSEVNLDAEFRDpa) concentration: A 25 mM stock solution in DMSO is prepared using the peptide weight and MW, and diluted to 25 μM. The concentration is determined by absorbance at 354 nm using an extinction coefficient ε of 18172 M^−1cm^−1. The substrate stock is stored in small aliquots at −80° C. [Substrate Stock]=ABS^354 nm*10^6/18172 (in mM)
Determination of stock enzyme concentration: The stock concentration of each enzyme is determined by ABS at 280 nm using ε of 64150 M^−1cm^−1 for hBACE1 and MuBACE1, 62870 M^−1cm^−1 for hBACE2 in 6 M guanidinium hydrochloride (from Research Organics, Cat. #5134G-2), pH 6. (The extinction coefficient ε^280 nm for each enzyme is calculated based on known amino acid composition and published extinction coefficients for Trp ([…]) and Tyr ([…]) residues (Anal. Biochem. 182, 319-326).)
Dilution and Mixing Steps: Total Reaction Volume: 100 μL • 1. 2× inhibitor dilutions in buffer A (66.7 mM Na-Acetate, pH 4.5, 0.0667% CHAPS) are prepared, • 2. 4× enzyme dilution in buffer A (66.7 mM Na-Acetate, pH 4.5, 0.0667% CHAPS) are prepared, • 3. 100 μM substrate dilution in 1× PBS, 50 μL 2× Inhibitor and 25 μL 100 μM substrate are added to each well of 96-well plate (from DYNEX Technologies, VWR #: 11311-046), then immediately 25 μL 4× enzyme is added to the inhibitor and substrate mixer and the fluorescence readings are initiated.
Fluorescence Readings: Readings at λex 320 nm, λem 420 nm are taken every 40-sec for 30 min at room temperature and to determine the linear slope for substrate cleavage rate (vi).
Analysis of calculation of % inhibition: % Inhibition=100*(1−vi/v0) • vi=substrate cleavage rate in the presence of inhibitor, • v0=substrate cleavage rate in the absence of inhibitor) • IC50 Determination: % Inhibition=((B*IC50^n)+(100*I0^n))/(IC50^n+I0^n),
Unless otherwise noted, the IC50 value represents the value obtained at […].

[2] = molecular target: human BACE1 (Homo sapiens, UniProt P56817); assay: Fluorescent kinetic enzyme assay, inhibition of BACE1 (WABC-6 peptide substrate); assay type: biochemical; details: 10 nM enzyme, 25 μM substrate, pH 4.5, room temperature
Method: as §1
Dilution and mixing steps: total reaction volume: 100 μL • 1. […] 100 μM substrate dilution in 1× PBS is prepared, • 4.
Fluorescence Readings: Readings at λex 320 nm and λem 420 nm are taken every 40-sec for 30 min at room temperature to determine the linear slope for substrate cleavage rate (vi).

human BACE1, sequence (P56817 46-501): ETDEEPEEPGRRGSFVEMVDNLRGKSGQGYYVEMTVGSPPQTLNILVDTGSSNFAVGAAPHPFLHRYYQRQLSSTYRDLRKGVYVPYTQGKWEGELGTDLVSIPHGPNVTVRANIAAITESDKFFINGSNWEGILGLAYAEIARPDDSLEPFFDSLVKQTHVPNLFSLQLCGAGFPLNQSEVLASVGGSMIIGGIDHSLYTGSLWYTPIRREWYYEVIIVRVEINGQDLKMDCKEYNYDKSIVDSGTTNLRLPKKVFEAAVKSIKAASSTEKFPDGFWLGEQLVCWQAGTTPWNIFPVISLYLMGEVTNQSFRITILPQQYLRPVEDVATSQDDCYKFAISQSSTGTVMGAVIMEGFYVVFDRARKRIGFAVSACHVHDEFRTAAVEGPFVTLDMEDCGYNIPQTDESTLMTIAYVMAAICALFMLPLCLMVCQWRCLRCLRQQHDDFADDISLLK

Row | inhibition at 25 µM [1] [%] | melting point [°C] | IC50 [2] [nM] | IC50 [1] [nM] | Structure (SMILES)
1 | 51 | 125 to 131 | 520 |  | NC1=NC(c2ccncc2)(c2cccc(-c3cccnc3F)c2)C2=NCCCN12 (stereo not drawn) [Example 1, 8-[3-(2-Fluoropyridin-3-yl)phenyl]-8-pyridin-4-yl-2,3,4,8-tetrahydroimidazo[1,5-a]pyrimidin-6-amine]
2 | 38 | 174 to 176 | 10 |  | CCc1cc(C2(c3cccc(-c4cccnc4F)c3)N=C(N)N3CCCN=C32)cc(CC)n1 (stereo not drawn) [Example 2, 8-(2,6-Diethylpyridin-4-yl)-8-[3-(2-fluoropyridin-3-yl)phenyl]-2,3,4,8-tetrahydroimidazo[1,5-a]pyrimidin-6-amine]
3 |  | 91 to 115 | 90 | 3520 | CCn1cc(C2(c3cccc(-c4cccnc4F)c3)N=C(N)N3CCCN=C32)cn1 (stereo not drawn) [Example 3, 8-(1-Ethyl-1H-pyrazol-4-yl)-8-[3-(2-fluoropyridin-3-yl)phenyl]-2,3,4,8-tetrahydroimidazo[1,5-a]pyrimidin-6-amine]
4 |  | 106 to 116 | 80 | 5120 | NC1=NC(c2cccc(-c3cccnc3F)c2)(c2cnn(CC(F)(F)F)c2)C2=NCCCN12 (stereo not drawn) [Example 4, 8-[3-(2-Fluoropyridin-3-yl)phenyl]-8-[1-(2,2,2-trifluoroethyl)-1H-pyrazol-4-yl]-2,3,4,8-tetrahydroimidazo[1,5-a]pyrimidin-6-amine]
5 |  | 102 to 117 | 30 | 2020 | NC1=NC(c2ccc(OC(F)(F)F)cc2)(c2cccc(-c3cccnc3F)c2)C2=NOCCN12 (stereo not drawn) [Example 5, 8-[3-(2-Fluoropyridin-3-yl)phenyl]-8-[4-(trifluoromethoxy)-phenyl]-3,4-dihydro-8H-imidazo[5,1-c][1,2,4]oxadiazin-6-amine]
6 |  | 120 to 135 | 50 | 1190 | NC1=NC(c2ccc(OC(F)(F)F)cc2)(c2cccc(-c3cncc(F)c3)c2)C2=NCCON12 (stereo not drawn) [Example 6, 8-[3-(5-Fluoropyridin-3-yl)phenyl]-8-[4-(trifluoromethoxy)phenyl]-2,8-dihydro-3H-imidazo[1,5-b][1,2,4]oxadiazin-6-amine]
